PMC6017928, “Informing Efforts to Develop Nitroreductase for Amine Production” (Molecules : A Journal of Synthetic Chemistry and Natural …, 2018)

What was measured:
MsPnbA = target: T1, MsPnbA (Mycolicibacterium smegmatis, UniProt A0R6D0); test: NADH oxidation, initial rates in microtiter plate; Michaelis-Menten fit; assay type: biochemical; details: NADH co-substrate, 25 °C; only normalised kcat/KM used in text
T1 construct: gene nfnB; C-terminal poly-His tag; E. coli BL21(DE3), pET-28a; Ni-NTA, FMN-reconstituted

StNfsB = target: T2, StNfsB (Salmonella enterica, UniProt P15888); test: NADH oxidation at […] nm; Michaelis-Menten fit; assay type: biochemical; details: 0.5 mM NADH, 25 °C
T2 construct: gene nfsB; full length, 217 residues; untagged purification (ammonium sulfate, DEAE, Sephacryl); E. coli BL21(DE3), pET-28a; FMN-reconstituted; homodimer
T2 sequence (P15888 1-217): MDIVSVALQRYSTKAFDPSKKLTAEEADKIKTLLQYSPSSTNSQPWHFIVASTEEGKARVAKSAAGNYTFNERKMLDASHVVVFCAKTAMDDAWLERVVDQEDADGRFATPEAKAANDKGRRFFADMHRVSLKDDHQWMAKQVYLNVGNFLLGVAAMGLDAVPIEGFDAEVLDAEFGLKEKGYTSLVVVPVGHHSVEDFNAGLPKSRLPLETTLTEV

T1 sequence (A0R6D0 whole entry): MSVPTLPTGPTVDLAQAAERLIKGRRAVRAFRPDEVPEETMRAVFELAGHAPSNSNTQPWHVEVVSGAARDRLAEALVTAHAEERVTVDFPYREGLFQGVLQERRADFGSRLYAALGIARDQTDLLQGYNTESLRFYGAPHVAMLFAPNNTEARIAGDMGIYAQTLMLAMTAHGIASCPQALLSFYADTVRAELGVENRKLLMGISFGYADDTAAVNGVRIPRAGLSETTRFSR

Structure (SMILES): O=[N+]([O-])c1ccccc1 [compound 1, nitrobenzene]
- NADH oxidation, initial rates in microtiter plate; Michaelis-Menten fit (MsPnbA): dividing by the rate measured for the unsubstituted parent compound: nitrobenzene
- NADH oxidation at 370 nm; Michaelis-Menten fit (StNfsB): dividing by the rate measured for the unsubstituted parent compound: nitrobenzene
